pIC50: −log10 of the molar value.
Target: T1, HIV-1 reverse transcriptase (Human immunodeficiency virus type 1 group M subtype B, UniProt P04585)
T1 construct: purified recombinant HIV-1 reverse transcriptase (RT, EC, 2.7.7.49); made in house; host or cells: Escherichia coli
Experiment: Inhibition of HIV-1 Reverse Transcriptase Enzyme
Format: biochemical
Settings: purified recombinant HIV-1 RT expressed in Escherichia Coli; [3H]-SPA or [3H]-flashplate enzyme assay; 5% final DMSO
Description: The activity of the compounds of the invention as reverse transcriptase inhibitors may be measured using the following assay.
Inhibition of HIV-1 Reverse Transcriptase Enzyme
Using purified recombinant HIV-1 reverse transcriptase (RT, EC, 2.7.7.49) obtained by expression in Escherichia Coli, a 96-well plate assay system is established for assaying a large number of samples using either the Poly(rA)-oligo(dT) Reverse Transcriptase [3H]-SPA enzyme assay system (Amersham NK9020) or the [3H]-flashplate enzyme assay system (NEN-SMP 103) and following the manufacturer's recommendations. The compounds are dissolved in 100% DMSO and diluted with the appropriate buffer to a 5% final DMSO concentration. The inhibitory activity is expressed in percent inhibition relative to DMSO control.

SMILES | pIC50
Cc1n[nH]c(CC(=O)N2CCc3ccccc3C2)c1Oc1cc(Cl)cc(Cl)c1 [Example 8, 2-[4-(3,5-Dichloro-phenoxy)-5-methyl-2H-pyrazol-3-yl]-1-(3,4-dihydro-1H-isoquinolin-2-yl)-ethanone] | 8.00
Cc1n[nH]c(CC(=O)N2CCc3ccccc3C2)c1Oc1cc(Cl)cc(C#N)c1 [Example 17] | 7.19

— patent US7157468B2, “Pyrazole derivatives” (Pfizer Inc., priority 2002, dated 2007)
